Measurements taken from patent publication US7112586B2, “Substituted diamine derivatives useful as motilin antagonists” (Ortho-McNeil Pharmaceutical, Inc., priority 2000, dated 2006).

Experiments:
Motilin Receptor = molecular target: T1, Motilin Receptor (Oryctolagus cuniculus, UniProt G1T803); assay: Motilin receptor binding, rabbit colon membranes, 125I porcine motilin; design: Rabbit Colon % Inh / inhibition / % Inh (Rabbit colon): dose or concentration left out as unconfirmed; conditions: rabbit colon membranes; for inhibition: read-out: Rabbit Colon % Inh; for IC50: read-out: Rabbit Colon IC50
T1 construct: The muscle tissue was homogenized in 10 volumes of 50 mM Tris-Cl; from tissue; host or cells: rabbit colon smooth muscle, crude membrane homogenate
T1 sequence (G1T803 1-400): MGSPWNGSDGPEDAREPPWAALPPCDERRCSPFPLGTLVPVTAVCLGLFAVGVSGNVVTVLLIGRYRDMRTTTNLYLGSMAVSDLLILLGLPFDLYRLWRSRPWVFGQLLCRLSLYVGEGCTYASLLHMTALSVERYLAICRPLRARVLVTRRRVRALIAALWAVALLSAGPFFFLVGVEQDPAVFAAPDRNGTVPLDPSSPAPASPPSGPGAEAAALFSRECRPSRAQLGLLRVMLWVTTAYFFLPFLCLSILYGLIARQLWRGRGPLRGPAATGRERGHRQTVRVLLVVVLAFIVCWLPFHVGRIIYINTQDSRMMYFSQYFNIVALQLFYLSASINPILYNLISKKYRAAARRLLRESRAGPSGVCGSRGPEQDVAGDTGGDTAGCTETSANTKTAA

[1] = system: motilin induced contraction; assay: Rabbit tissue bath procedure: inhibition of motilin induced contraction of duodenum segments; design: species or system New Zealand White rabbit; conditions: 3 nM porcine motilin induced contraction, read-out: Tissues IC50
Procedure: Rabbit Tissue Bath Procedure
One New Zealand White rabbit (Covance) of either sex was euthanized with an IV injection of Sleepaway. The duodenum was quickly excised, the lumen rinsed with saline to clean, and the tissue placed in cold, aerated (95% O2–5% CO2) Tyrodes buffer (NaCl 136.9 mM, KCl 2.7 mM, CaCl2 1.8 mM, MgCl2 1.04 mM, NaH2PO4 0.42 mM, NaHCO3 11.9 mM, Glucose 5.55 mM, pH 7.4). The duodenum, being kept moist at all times, was cleaned of any excess mesenteric tissue, and then cut into 3 cm segments starting at the proximal end. Sixteen tissue segments were usually prepared from each duodenum. These segments were tied on both ends with 3-0 silk suture (Ethicon). One end of the tissue was attached to an S-hook on a custom made glass support rod (Crown Glass Co., Somerville) and the rod plus tissue were placed in a 15 ml isolated tissue bath (Radnoti). The other end of the glass rod was attached to a Grass Force Displacement Transducer FT03. The tissue was maintained in room temperature Tyrodes buffer pH 7.4 and continually gassed with 95% O2— 5% CO2. The tissues were adjusted to 1.0 g resting tension and maintained at that tension throughout the equilibration period. An Ml2 Tissue Bath Computer was used to record and analyze data.
The tissues were washed twice during a 30 minute equilibration period and readjusted to 1 g resting tension as necessary. After equilibration the tissues were challenged with 3 μM Carbachol (Carbamoylcholine Chloride-Sigma). After maximal contraction was attained, the tissues were washed 3 times with Tyrodes. The tissues were allowed a 20 minute resting/equilibration period, during which time they were washed once and readjusted to 1 g resting tension. The tissues were challenged a second time with 3 μM Carbachol, and this contraction was considered as maximal, or 100% contraction. The tissues were washed 3 times, equilibrated for 10 minutes, washed again and readjusted to 1 g resting tension. Vehicle or test compound in 30% DMSO-50 mM HEPES was added directly to the bath and the tissues were incubated for 20 minutes. Test compounds and vehicle were run in duplicate.
The percent inhibition by test compound of the motilin induced contraction was calculated by first determining the ratio of the vehicle contractions with Motilin compared to the Carbachol contractions. This Tissue Adjustment Factor (TAF) was used to determine the value for the potential uninhibited contraction with Motilin for each tissue. The percent inhibition was then determined by dividing the actual Motilin contraction in treated tissues by the potential uninhibited contraction and subtracting this number from 1. IC50 values were determined by graphing results with Kaleidograph graphing program.

[2] = molecular target: T2, motilin receptor preparation (Human antrum tissue) (Homo sapiens, UniProt O43193); assay: 125I-motilin binding to human antral stomach membranes; conditions: human antrum membranes, @1 μM
T2 construct: Human antrum tissue from Analytical Biological Services (Wilmington, Del.) was prepared as a motilin receptor preparation; tissue Analytical Biological Services (Wilmington, Del.); host or cells: human antrum (stomach) muscle tissue, crude membrane homogenate
T2 sequence (O43193 whole entry): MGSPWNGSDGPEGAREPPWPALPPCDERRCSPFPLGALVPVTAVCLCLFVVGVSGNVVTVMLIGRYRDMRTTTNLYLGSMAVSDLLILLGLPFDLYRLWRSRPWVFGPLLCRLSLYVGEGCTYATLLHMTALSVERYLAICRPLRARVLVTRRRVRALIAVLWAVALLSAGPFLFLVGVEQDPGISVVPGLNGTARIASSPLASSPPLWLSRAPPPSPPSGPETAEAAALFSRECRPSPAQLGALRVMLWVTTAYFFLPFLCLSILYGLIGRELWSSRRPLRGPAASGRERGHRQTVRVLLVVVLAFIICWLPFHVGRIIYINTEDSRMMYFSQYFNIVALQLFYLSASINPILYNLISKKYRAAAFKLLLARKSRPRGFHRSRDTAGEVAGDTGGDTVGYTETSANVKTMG
Procedure: Human antrum tissue from Analytical Biological Services (Wilmington, Del.) was prepared as a motilin receptor preparation in the following manner. The muscle tissue was homogenized in 10 volumes of 50 mM Tris-Cl, 10 mM MgCl2, 0.1 mg/ml bacitracin, and 0.25 mM Peflabloc, pH 7.5) in a Polytron (29000 rpm, 4×15 seconds). The homogenate was centrifuged at 1000×g for 15 minutes and the supernatant discarded. The pellet was washed twice before being suspended in homogenizing buffer. The crude homogenate was resuspended through a 23 gauge needle before aliquoting and storing at −80° C. The human cloned receptor was prepared from HEK 293 cells overexpressed with the motilin receptor. Cell pellets were thawed and resuspended in 2–3 volumes of homogenizing buffer (10 mM Tris-Cl, 0.2 mM MgCl2, 5 mM KCl, 5 μg/ml aprotinin, leupeptin, and pepstatin A, and 50 μg/ml bacitracin, pH 7.5) and allowed to sit on ice for 15–20 minutes. The suspension was homogenized on ice in a Dounce type homogenizer using 15 strokes. Sucrose and EDTA were added to a final concentration of 0.25M and 1 mM, respectively, and mixed with a few additional strokes. The material was centrifuged at 400×g for 5 minutes, and the supernatant saved. The pellet was re-resuspended twice with 5 ml homogenizing buffer and rehomogenized as before, and the supernatants combined. The supernatant was centrifuged at 100000×g for 1 hour. The pellet is retained and resuspended with 5 ml of homogenizing buffer through a 19 g and 25 g needle. The suspension is aliquoted and stored at −80° C. until used. The binding assay contains the following components (50 mM HEPES, 5 mM MgCl2, and 1 mM EGTA, pH 7.0, 15 mg/ml BSA, 10 μg/ml aprotinin, leupeptin, and pepstatin A, 0.25 mg/ml bacitracin, and 10 mM benzamidine), ^125I-radiolabelled porcine motilin (50000–70000 cpm; specific activity 2000 Ci/mmol), test compound, and membrane protein. After 60 minutes at 30° C., the samples are placed on ice and centrifuged for 1 minute at 13000×g. The pellet is washed twice with 1 ml cold saline, and after removal of the final supernatant, the pellet at the bottom of the tube is counted in a gamma counter. Non-specific binding is measured by the inclusion of 1 μM unlabelled motilin. IC50 values were determined from Kaleidograph curves.
125I-Motilin Binding to Human Antral Stomach Membranes and the Human Cloned Receptor: […]

| inhibition (Motilin Receptor) [%] | IC50 (Motilin Receptor) [nM] | IC50 [1] [nM] | inhibition at 1 µM ([2]; read-out: Human Antrum % Inh @1 μM) [%] | Human Antrum % Inh @1 μM [2] [%] | Compound |
| --- | --- | --- | --- | --- | --- |
| 63 | 462 | 230 |  |  | COc1ccc(CN(C(=O)CCCC(=O)N(CCc2ccccc2)Cc2ccccc2)c2cccc(OCCN3CCOCC3)c2)cc1 [compound 171] |
|  |  |  | 92 |  | CC(C)(C)C(=O)N(Cc1ccc(F)c(F)c1)[C@@H]1CC[C@H](CN(C(=O)c2ccc(F)cc2)c2cccc(OCCN3CCCC3)c2)C1 [compound 220] |
| 85 | 240 | 23 |  |  | O=C(CCCC(=O)N(Cc1ccc(F)cc1)c1cccc(OCCN2CCNCC2)c1)N(CCc1ccccc1)Cc1ccccc1 [compound 179] |
| 84 | 194 | 48 |  |  | O=C(CCC(=O)N(Cc1cccc(F)c1)c1cccc(OCCN2CCOCC2)c1)N(CCc1ccccc1)Cc1ccccc1 [compound 164] |
| 85 | 174 | 19 |  |  | O=C(CCC(=O)N(Cc1ccc(F)cc1)c1cccc(OCCN2CCOCC2)c1)N(CCc1ccccc1)Cc1cccc(Cl)c1 [compound 163] |
| 100 | 90 | 20.5 |  |  | O=C(c1ccc(F)cc1)N(CC1CCCC(N(Cc2cccc([N+](=O)[O-])c2)C(=O)C(Cl)(Cl)Cl)C1)c1cccc(OCCN2CCOCC2)c1 (stereo not drawn) [compound 93] |
| 97 | 46 | 240 |  |  | O=C(CCCC(=O)N(Cc1cccc(F)c1)c1cccc(OCCN2CCOCC2)c1)N(CCc1ccccc1)Cc1ccccc1 [compound 169] |
| 84 | 59 | 21 |  |  | Cc1c(OCCN2CCCC2)cccc1N(CC1CCCC(N(Cc2cccc(Cl)c2)C(=O)C(Cl)(Cl)Cl)C1)C(=O)c1ccc(F)cc1 (stereo not drawn) [compound 209] |
| 100 | 330 | 230 |  |  | O=C(CCCC(=O)N(Cc1ccc(F)cc1)c1cccc(OCCN2CCCC2)c1)N(CCc1ccc(Cl)cc1)Cc1cccc(Cl)c1 [compound 202] |
| 85 | 178 | 21 |  |  | O=C(CCCC(=O)N(Cc1ccc(F)cc1)c1cccc(OCCN2CCOCC2)c1)N(CCc1ccccc1)Cc1cccc(Cl)c1 [compound 162] |
| 89 | 29 | 3 |  |  | O=C(CCCC(=O)N(Cc1ccc(F)cc1)c1cccc(OCCN2CCCC2)c1)N(CCc1cccs1)Cc1cccc(Cl)c1 [compound 204] |
| 100 | 247 | 92 |  |  | O=C(CCCC(=O)N(Cc1ccc(F)cc1)c1cccc(OCCCN2CCCCC2)c1)N(CCc1ccccc1)Cc1ccccc1 [compound 188] |
|  |  |  |  | 98 | CC(C)(C)C(=O)N(Cc1cccc(Cl)c1)C1CCC(CN(C(=O)c2ccc(F)cc2)c2cccc(OCCN3CCCC3)c2)C1 (stereo not drawn) [compound 217] |
| 95 | 490 | > 300 |  |  | O=C(c1ccc(F)cc1)N(CC1CCCC(N(Cc2ccccn2)C(=O)C(Cl)(Cl)Cl)C1)c1cccc(OCCN2CCOCC2)c1 (stereo not drawn) [compound 90] |
| 93 | 57 | 16.8 |  |  | O=C(CCCC(=O)N(Cc1ccc(F)cc1)c1cccc(OCCN2CCCC2)c1)N(CCc1ccccn1)Cc1cccc(Cl)c1 [compound 201] |
| 81 | 163 | 185 |  |  | O=C(CCCC(=O)N(Cc1ccccc1F)c1cccc(OCCN2CCOCC2)c1)N(CCc1ccccc1)Cc1ccccc1 [compound 170] |
| 80 | 390 | 30 |  |  | CC(C)(C)C(=O)N(Cc1cccc(Cl)c1)C1CCCC(CN(C(=O)c2ccc(F)cc2)c2cccc(OCCN3CCOCC3)c2)C1 (stereo not drawn) [compound 105] |
| 100 | 93 | 12 |  |  | CN(C)CCOc1cccc(N(Cc2ccc(F)cc2)C(=O)CCCC(=O)N(CCc2ccccc2)Cc2ccccc2)c1 [compound 181] |
| 89 | 81 | 30 |  |  | O=C(CCCC(=O)N1CCc2ccccc2C1c1ccccc1)N(Cc1ccc(F)cc1)c1cccc(OCCN2CCOCC2)c1 (stereo not drawn) [compound 153] |
| 80 | 35 | 27 |  |  | O=C(Nc1ccccc1)N(CC1CCCC(N(Cc2cccc([N+](=O)[O-])c2)C(=O)C(Cl)(Cl)Cl)C1)c1cccc(OCCN2CCOCC2)c1 (stereo not drawn) [compound 65] |
| 90 | 86 | 24 |  |  | Cc1c(OCCN2CCCC2)cccc1N(CC1CCCC(N(Cc2ccccc2)C(=O)C(Cl)(Cl)Cl)C1)C(=O)c1ccc(F)cc1 (stereo not drawn) [compound 210] |
| 84 | 58 | 27 |  |  | O=C(c1ccc(F)cc1)N(CC1CCCC(N(Cc2ccccc2)C(=O)C(Cl)(Cl)Cl)C1)c1cccc(OCCN2CCCC2)c1 (stereo not drawn) [compound 213] |
| 71 | 1680 | > 30 |  |  | O=C(c1ccc(F)cc1)N(CC1CCCC(N(Cc2cccc(C(F)(F)F)c2)C(=O)C(Cl)(Cl)Cl)C1)c1cccc(OCCN2CCOCC2)c1 (stereo not drawn) [compound 96] |
| 100 | 6 | 4 |  |  | Cc1c(OCCN2CCCC2)cccc1N(Cc1ccc(F)cc1)C(=O)CCCC(=O)N(CCc1ccccc1)Cc1ccccc1 [compound 196] |
| 94 | 22 | 53 |  |  | O=C(CCCC(=O)N(Cc1ccc(F)cc1)c1cccc(OCCN2CCCCC2)c1)N(CCc1ccccc1)Cc1ccccc1 [compound 182] |
| 99 | 14 | 11 |  |  | O=C(CCCC(=O)N(Cc1ccc(F)cc1)c1cccc(OCCN2CCCC2)c1)N(CCc1ccccc1)Cc1ccccc1 [compound 180] |
| 85 | 9 | 7.6 |  |  | O=C(CCCC(=O)N(Cc1ccc(F)cc1)c1cccc(OCCN2CCCC2)c1)N(CCc1ccccc1)Cc1cccc([N+](=O)[O-])c1 [compound 197] |
| 100 | 70 | 15 |  |  | CCN(CC)CCOc1cccc(N(Cc2ccc(F)cc2)C(=O)CCCC(=O)N(CCc2ccccc2)Cc2ccccc2)c1 [compound 178] |
| 84 | 290 | 280 |  |  | O=C(CCCC(=O)N(Cc1ccc(Cl)cc1)c1cccc(OCCN2CCOCC2)c1)N(CCc1ccccc1)Cc1ccccc1 [compound 173] |
|  |  | 24 |  |  | CC(C)(C)C(=O)N(Cc1ccccc1)[C@@H]1CCC[C@H](CN(C(=O)c2ccc(F)cc2)c2cccc(OCCN3CCCC3)c2)C1 [compound 214] |
